Experimental data published in patent US20190083638A1, “NICLOSAMIDE-CONJUGATED POLYPEPTIDE NANOPARTICLES” (priority 2017, published 2019).

Legend:
[1] = Pilot study, LD50 of NIC formulated in DMA/PEG 400; parameters: species or system nude mice; conditions: nude, mouse, in vivo
HCT-116 tumors = test: Tumor inhibition in HCT-116 cell xenograft model; format: in vivo, male nude mice; conditions: i.v. every third day for two weeks, NIC 5 mg/kg, CP—NIC 20 mg/kg NIC-equivalent, n=8
Experimental: Prior to in vivo implantation, HCT116 cells were washed twice in Minimum Essential Media (MEM) (51200-038; Invitrogen; Carlsbad, Calif.). HCT116 cells were implanted in the right flank of male nude mice by subcutaneous injection of 1-2×10^6 cells in 50 μL. All animals were treated in accordance with National Institute of Health Guide for the Care and Use of Laboratory Animals under protocols approved by the Duke University Institutional Animal Care and Use Committee.
(§1) Controls or drugs were administered by tail vein infusion (50 μL/min) of 500 μL. […] Tumor dimensions and BW were measured 3-4 times a week, and the tumor volume was calculated according to Volume [mm^3]=length×width×depth×½.
(§2) Mice were monitored for BW loss, and euthanized upon exceeding 15% loss in BW or if their tumors grew to a volume greater than 1000 mm3. The maximum tolerated dose (MTD) was determined in mice with tumors. Cumulative survival curves were compared using Kaplan-Meier analysis, and the Sidak test, Tukey Test and Wilcoxon test were calculated using GraphPad Prism 6 software.
Body-weight loss was also measured throughout the treatment of free NIC and CP—NIC conjugate. All treatments were tolerated for the period of the study (FIG. 11). […] It was hypothesized that the mechanism of action of NIC released from nanoparticles in this study is the same as free NIC as previously characterized.

[2] = tested on: Wnt/β-catenin signaling in HCT-116 cells; test: Western blot of Wnt signaling (cytosolic β-catenin, c-myc, cyclin D1); format: cell-based, human; conditions: HCT116, western blotting
Experimental: Western blots were performed following a procedure similar to that reported previously (Osada et al., Cancer Res., 2011, 71, 4172-4182). […] After treatment, the cytosolic fraction was isolated as previously described (Chen et al., Biochemistry, 2009, 48, 10267-10274). Immunoblot was used to detect the 3-catenin, c-myc and cyclin D1 protein levels in cytosol, with β-actin immunoblots used for loading control.
Wnt signaling activity was quantified as cytosolic β-catenin level by Western blot.

[3] = free drug solution at 200 mg/kg BW; cited from earlier work
[4] = tested on: tumor cell lines from multiple tumor types; conditions: breast, lung, prostate, ovary, blood, pancreas, colon tumor cell lines; read-out: IC50 range, inhibition of proliferation of tumor cell lines; cited from earlier work
[5] = tested on: HCT116 human colon carcinoma cells; test: In vitro cell proliferation (MTS assay); format: cell-based; conditions: HCT-116, read-out: IC50, concentration of NIC (or NIC equivalent) to inhibit proliferation of cells by 50%, HCT116, 72 hours of exposure
Experimental: HCT116 human colon carcinoma cells were purchased from American Type Culture Collection (Manassas, Va., USA) and maintained in McCoy's 5A medium supplemented with 10% fetal bovine serum (FBS, Atlanta Biologicals, Lawrenceville, Ga., USA), 200 U/ml penicillin, and 50 ng/ml streptomycin (Invitrogen, Grand island, NY, USA). Cells were grown at 37° C. in 5% CO2. The cells were plated at 5,000 cells per well into 96 well plates and treated with compounds (n=3) for 48 hours, at which point the cell proliferation was measured using the colorimetric MTS assay (Promega, Madison, Wis., USA). Values were normalized as a percentage of DMSO treated cells. The dose response data were fit with sigmoidal dose-response using Graphpad Prism.

[6] = Dose escalation / tolerability in mice bearing subcutaneous HCT116 tumors; conditions: male, nude, mouse, in vivo, intravenous, 5 mg/kg BW; mice with tumors, 3 days/week for 2 weeks, tail vein infusion; read-out: maximum tolerated dose
Experimental: as §1, §2

in vivo = conditions: iv
Experimental: Blood samples were obtained 0.5 h prior to dosing and at 0.08, 0.17, 0.33, 0.67, 1.5, 4, 8, 12, 24 hours after drug administration (n=4 per time point).
Blood samples were obtained at 0.5 h prior to the dosing and at 0.08, 0.17, 0.33, 0.67, 1.5, 4, 8, 12, and 24 h after drug administration.

**Q.** With `O=C(Nc1ccc([N+](=O)[O-])cc1Cl)c1cc(Cl)ccc1O` [NIC, Niclosamide] as the compound, how does the LD50 [1] read?
**A.** 5 mg/kg

**Q.** And the median survival time (HCT-116 tumors; Kaplan-Meier)?
**A.** 16 days

**Q.** And the mean tumor volume (HCT-116 tumors; ten days after start of treatment)?
**A.** 661 mm3

**Q.** And the “levels of Wnt target proteins c-myc and cyclin D1” value [2]?
**A.** similarly reduced

**Q.** What about the “time plasma levels of NIC were above the IC50 for Wnt inhibition” value [3] of the same compound?
**A.** less than 1 h

**Q.** And the IC50 [4]?
**A.** 0.13 to 4 µM

**Q.** And the IC50 [5]?
**A.** 0.85 µM

**Q.** What about the MTD at 2 weeks [6] of the same compound?
**A.** 5 mg/kg

**Q.** What about the “% AUC-inf extrapolated (AUC-last/AUC-inf) * 100” value (in vivo; CD1, mouse) of the same compound?
**A.** 0.33 ± 0.45%

**Q.** What about the MRT inf (in vivo; CD1, mouse) of the same compound?
**A.** 54 ± 28.8 min

**Q.** What about the MRT last (in vivo; CD1, mouse) of the same compound?
**A.** 54 ± 26.4 min

**Q.** What about the Tmax (in vivo; CD1, mouse) of the same compound?
**A.** 12 ± 10.2 min

**Q.** What about the half-life (in vivo; CD1, mouse) of the same compound?
**A.** 60 ± 13.2 min

**Q.** And the Cmax (in vivo; CD1, mouse, 128 mg/kg)?
**A.** 6200 ± 4230 ng/mL

**Q.** What about the “Vss (=CL × MRT; overall distrib. Volume at steay state)” value (in vivo; mouse) of the same compound?
**A.** 0.7 ± 0.28 L (per kg BW)
